Test system: T1, Z. jujuba peroxidase (POD IIA)
T1 construct: 56 kDa by gel filtration and SDS-PAGE (single band); EC 1.11.1.7
Experiment: absorbance at […] nm, Lineweaver-Burk
Format: biochemical, Ziziphus jujuba
Settings: co-substrate H2O2; 0.05 M sodium acetate pH 5.5; 50 °C; guaiacol 20-90 mM; text prints 23.5 with the units of Km and Vmax interchanged (unit/ml)

COc1ccccc1O [guaiacol]
Km: 23.5 mM
